# Laboratory results reported in US20250073351A1, “IMPROVED COMPOSITIONS FOR DELIVERY OF MRNA” (TRANSLATE BIO, INC., priority 2021, published 2025).
# Test system: lungs of mice
# Assay: In vivo screen of cationic lipids for pulmonary delivery of FFL mRNA-LNP (IVIS imaging)
# Settings: LNP with DOPE, DMG-PEG2K, optionally cholesterol; about 5 hours post-dose
# Procedure: In this example, various cationic lipids were tested for in Wvo efficacy when mRNA encapsulated in lipid nanoparticles (mRNA-LNP) were administered to mice by pulmonary delivery. The cationic lipids were tested for both potency, as determined by levels of protein production, and tolerability, as determined by side effects associated with clearance and metabolism.
# About 150 cationic lipids were tested. (FIG. 16). Each cationic lipid was used in preparing lipid nanoparticles encapsulating mRNA encoding firefly luciferase protein (FFL mRNA) according to methods known in the art. For example, suitable methods for mRNA encapsulation include methods described in International Publication Nos. WO2016/004318 and WO 2018/089801, which are hereby incorporated by reference in their entirety. The tested lipid nanoparticles comprised a lipid component consisting of a cationic lipid, a non-cationic lipid (DOPE), a PEG-modified lipid (DMG-PEG2K), and optionally cholesterol.
# Lipid nanoparticle formulations comprising FFL mRNA were administered to mice. At approximately 5 hours post-dose, the animals were dosed with luciferin by intraperitoneal injection and all animals were imaged using an IVIS imaging system to measure luciferase production in the lung. […] Some cationic lipids remarkably had greater than 50-fold increase in pulmonary protein expression as compared to other cationic lipids.
row,Structure (SMILES),potency as determined by the average radiance detected in mouse lungs
1,"CCCCC/C=C\C/C=C\CCCCCCCC(=O)OCC(COC(=O)CCCCCCC/C=C\C/C=C\CCCCC)(COC(=O)CCCCCCC/C=C\C/C=C\CCCCC)NCCS(=O)(=O)NCCN(C)C [GL-TES-SA-DME-E18-2, 2-((2-(N-(2-(dimethylamino)ethyl)sulfamoyl)ethyl)amino)-2-((((9Z,12Z)-octadeca-9,12-dienoyl)oxy)methyl)propane-1,3-diyl (9Z,9′Z,12Z,12′Z)-bis(octadeca-9,12-dienoate)]",particularly high potency
2,CCCCC/C=C\C/C=C\CCCCCCCC(=O)OCC(COC(=O)CCCCCCC/C=C\C/C=C\CCCCC)(COC(=O)CCCCCCC/C=C\C/C=C\CCCCC)NCCS(=O)(=O)NCCCN(C)C [GL-TES-SA-DMP-E18-2],particularly high potency
3,CCCCCCCCC(O)CN(CCCC(=O)OCCN1CC(C)N(CCOC(=O)CCCN(CC(O)CCCCCCCC)CC(O)CCCCCCCC)CC1C)CC(O)CCCCCCCC (stereo not drawn) [HEP-E3-E10],particularly high potency
4,CCCCCCCCC(O)CN(CCCCC(=O)OCCN1CC(C)N(CCOC(=O)CCCCN(CC(O)CCCCCCCC)CC(O)CCCCCCCC)CC1C)CC(O)CCCCCCCC (stereo not drawn) [HEP-E4-E10],particularly high potency
5,"CCCCCCCCOC(=O)CC(CC(=O)OCCCCCCCC)(OC(=O)CCN(C)C)C(=O)OCCCCCCCC [TL1-01D-DMA, trioctyl 2-((3-(dimethylamino)propanoyl)oxy)propane-1,2,3-tricarboxylate]",particularly high potency
6,CCCCCCCCCCCCCCOC(=O)CC(CC(=O)OCCCCCCCCCCCCCC)(OC(=O)CCN(C)C)C(=O)OCCCCCCCCCCCCCC [TL1-04D-DMA],particularly high potency
